How the values were obtained:
[1] = system: Escherichia coli WP2 uvrA; test: Ames test; conditions: CPL500036 5000µg/plate, n=3
[2] = pKa (Figure 1); assay type: physicochemical; conditions: printed in the picture of Figure 1, no method given
[3] = system: cardiac 3D spheroids (cardiomyocytes and fibroblasts derived from human pluripotent cells); test: Cardiotoxicity in spontaneously beating cardiac 3D spheroids; assay type: cell-based
Procedure: The cardiotoxic effect of CPL500036 was evaluated in spontaneously beating cardiac 3D spheroids (comprising cardiomyocytes and fibroblasts derived from human pluripotent cells) by Cyprotex (Cheshire, United Kingdom). Experiments were carried out in accordance with the service-provider’s protocol. Specific parameters of cell health were assessed: number and size of spheroids, DNA structure, intracellular level of calcium ions, mitochondrial mass, membrane potential and cellular ATP. […] During the 14 days of the experiment, redosing occurred on three occasions. Spheroid hypertrophy was measured on days 3, 7, 10, and 14 using the “brightfield live cellular imaging” mode of a Cellomics ArrayScan® XTI system (Thermo Scientific, Waltham, MA, United States). On day-14, the spheroid model was analyzed using the confocal mode of Cellomics ArrayScan XTI following incorporation of appropriate fluorescent dyes. Subsequently, cellular ATP content was measured using CellTiterGlo® (Promega, Fitchburg, WI, United States). Mitomicyn C and dasatinib were used as positive controls (Supplementary Table S1).
concentration at which 50% maximum effect is observed for each cell health parameter; NR - No response observed.

[4] = Plasma protein binding (equilibrium dialysis); assay type: in vitro ADME, rats
Procedure: The plasma protein binding study was carried out by Eurofins (Poitiers, France) according to the service-provider’s protocol. Briefly, the protein matrix was spiked with the test compound at 10 μM (n = 2) with a final DMSO concentration of 1%. The dialysate compartment was loaded with phosphate buffered saline (PBS, pH 7.4) and the sample side was loaded with equal volume of the spiked protein matrix. The dialysis plate was incubated at 37°C for 4 h. After the incubation, samples were taken from each compartment, diluted with the phosphate buffer followed by addition of acetonitrile and centrifugation. The supernatants were then used for HPLC-MS/MS analysis. Acebutolol, quinidine, and warfarin were tested as reference.

[5] = biological target: hERG (Homo sapiens, UniProt Q12809); test: hERG tail current, manual patch-clamp in hERG-HEK-293 transfected cells; assay type: cell-based
Procedure: The dose-dependent effect of CPL500036 (10^–7 M–10^–5 M) on hERG current was conducted at Centre De Recherches Biologiques (CERB; Baugy, France) using the whole hERG-HEK-293 transfected cell system and manual patch-clamp method. […] Cells were clamped to −80 mV, depolarized to 0 mV for 5 s (to allow activation of hERG current) and repolarized to −50 mV for 5 s (to allow hERG tail current to deactivate). This experimental procedure was repeated at a frequency of 0.06 Hz. Currents were filtered at 1 kHz and acquired at a frequency of 2 kHz. The amplitude of hERG tail current was measured during the repolarizing pulse from 0 mV to −50 mV. […] Currents were measured before and after exposure to CPL500036.

[6] = Pharmacokinetics after oral gavage in dogs (plasma); assay type: in vivo; conditions: both sexes, Beagle, dog plasma, 1.5 mg/kg oral gavage, mean ± SD, n = 4
Procedure: The study was carried out in 40 male Wistar Han rats (∼10 weeks; Tri-City Academic Laboratory Animal Centre, Research and Services Centre, Medical University of Gdansk). Rats were fasted for 12 h (water was available at libitum) before administration and fed 4 h post-dose. Rats received CPL500036 (3 mg/kg per oral gavage). At each of eight time points (15 min, 30 min as well as 1 h, 2 h, 4 h, 7 h, 12 h, and 24 h), five rats were killed by exsanguination, and samples of blood and brain were harvested. Two male and two female Beagle dogs (10.5–13 months old, MediTox s.r.o., Konarovice, Czech Republic) received CPL500036 in a dose of 1.5 mg/kg per oral gavage. Blood was taken by venepuncture from v. cephalica antebrachii at twelve time points (0 min, 15 min, 30 min as well as 1 h, 2 h, 3 h, 4 h, 6 h, 8 h, 12 h, 24 h, and 48 h.
Blood was collected into tubes containing the anticoagulant K2EDTA and centrifuged (2,000 × g, 15 min, 4°C) to obtain plasma. Brain samples were homogenized in water. Plasma and brain homogenates were stored at −80°C until analyses. Acetonitrile (150 μl) spiked with internal standard (donepezil; MilliporeSigma) was added to 50 μl of each plasma homogenate or brain homogenate, respectively. The mixture was shaken vigorously for 2 min and then centrifuged (4,000 × g, 4 min, room temperature). Supernatants were injected into a high-performance liquid chromatography system (Infinity™ 1,260; Agilent Technologies, Santa Clara, CA, United States) with a Zorbax SB column ([…]; 1.8 μm; Agilent Technologies). The mobile phase was ammonium formate (20 mM, pH 3.0) and acetonitrile with 0.1% formic acid. The gradient chromatographic separation used a flow rate of 0.4 ml/min for 7.5 min at a nominal temperature of 30°C. Signal acquisition was undertaken for 5.5 min using of a triple quadrupole mass spectrometer (6,460 series; Agilent Technologies) with electrospray ionization (5500 V, 320°C). Multiple-reaction monitoring was applied to detect the following transitions of the m/z ratio: 342.0–220.9 and 342–235.9 for CPL500036; 380.5–362.9 and 380.5–243.5 for donepezil. The drug concentration was calculated from the ratio of the peak area response relative to the internal standard using a standard curve.

[7] = system: Salmonella typhimurium TA98; test: Ames test; conditions: CPL500036 5000µg/plate, n=3
[8] = With metabolic activation (+S9 mix), 2AA 2µg/plate
[9] = Without metabolic activation (-S9 mix), MMS 2µg/plate
[10] = Without metabolic activation (-S9 mix), NPD 4µg/plate

Sequence of hERG (Q12809 whole entry): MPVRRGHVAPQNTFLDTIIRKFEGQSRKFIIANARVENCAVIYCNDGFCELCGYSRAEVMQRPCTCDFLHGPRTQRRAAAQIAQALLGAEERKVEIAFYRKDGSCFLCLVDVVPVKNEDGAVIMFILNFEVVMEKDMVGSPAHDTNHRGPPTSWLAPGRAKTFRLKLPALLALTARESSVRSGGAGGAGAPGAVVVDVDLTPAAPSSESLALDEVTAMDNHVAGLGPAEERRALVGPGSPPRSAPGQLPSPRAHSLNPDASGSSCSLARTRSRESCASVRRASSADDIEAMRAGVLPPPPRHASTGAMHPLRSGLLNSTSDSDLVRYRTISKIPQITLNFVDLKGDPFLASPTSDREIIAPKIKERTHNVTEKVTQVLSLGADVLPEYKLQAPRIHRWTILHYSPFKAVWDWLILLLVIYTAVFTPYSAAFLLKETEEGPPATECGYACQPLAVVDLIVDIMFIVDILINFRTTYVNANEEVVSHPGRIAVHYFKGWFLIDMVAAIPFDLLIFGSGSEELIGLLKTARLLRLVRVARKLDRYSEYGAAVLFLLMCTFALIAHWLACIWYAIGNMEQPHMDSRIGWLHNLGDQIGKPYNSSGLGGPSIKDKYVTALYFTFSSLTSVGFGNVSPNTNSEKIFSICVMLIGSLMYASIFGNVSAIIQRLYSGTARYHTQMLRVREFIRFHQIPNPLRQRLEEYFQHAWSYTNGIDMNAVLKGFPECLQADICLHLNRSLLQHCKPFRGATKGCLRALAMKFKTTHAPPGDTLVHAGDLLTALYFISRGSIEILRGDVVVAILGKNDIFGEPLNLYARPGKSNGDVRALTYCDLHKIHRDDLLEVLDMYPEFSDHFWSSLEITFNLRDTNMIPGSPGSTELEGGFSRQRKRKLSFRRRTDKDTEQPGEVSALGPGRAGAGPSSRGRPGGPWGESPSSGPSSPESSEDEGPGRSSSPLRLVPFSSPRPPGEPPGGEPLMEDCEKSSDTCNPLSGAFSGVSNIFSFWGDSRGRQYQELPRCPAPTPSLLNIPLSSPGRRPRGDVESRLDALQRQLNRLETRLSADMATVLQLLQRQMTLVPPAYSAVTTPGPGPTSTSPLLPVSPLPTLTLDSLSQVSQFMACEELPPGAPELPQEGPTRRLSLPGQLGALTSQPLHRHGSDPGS

Structure (SMILES): Cc1ncc(C)n2nc(-c3ccn4cc(-c5ccccc5)nc4n3)nc12 [CPL500036, 7-[5,8-Dimethyl-(1,2,4)triazolo (1,5-a)pyrazin-2-yl]-2-phenylimidazo (1,2-a) pyrimidine]
- Mutation rate [1, 8]: 1.76
- Revertants Mean±SD [1, 8]: 42.3±2.89
- Mutation rate [1, 9]: 1.12
- Revertants Mean±SD [1, 9]: 22.3±2.08
- pKa [2]: 2.41
- effect on the number or size of spheroids, intracellular calcium concentration, mitochondrial mass, membrane potential or intracellular ATP ([3]; 0.0457 μM–100 µM): no effect
- IC50 ([3]; Homo sapiens, 3D cardiac spheroids, 0.0457 μM–100 µM, read-out: IC50, impaired DNA structure): 37.4 µM
- AC50 ([3]; Homo sapiens, 3D cardiac spheroids, read-out: DNA structure AC50): 37.4 µM
- free concentration of CPL500036 in rats ([4]; based on the plasma protein binding and pharmacokinetic data): 5%
- fraction unbound at 4 h, 10 µM ([4]; rat, plasma, pH 7.4, rats, 10 μM, 37°C, 4 h, n = 2): 0.08
- hERG IC25 relative to the IC50 for PDE10A [5]: > 3,000 times
- IC25, inhibition of hERG tail current ([5]; hERG-HEK-293 transfected cells, manual patch-clamp, mean ± SD, n = 3): 3.2 ± 1.6 µM
- Cmax [6]: 98.3 ± 55.4 ng/mL
- Tmax [6]: 1.3 ± 0.5 h
- half-life [6]: 2.1 ± 1.7 h
- AUC(0-t) ([6]; read-out: AUC(0–24h)): 199 ± 106 ng·h/mL
- Mutation rate [7, 8]: 0.92
- Revertants Mean±SD [7, 8]: 18.3±8.02
- Mutation rate [7, 10]: 0.74
- Revertants Mean±SD [7, 10]: 14.3±1.15

Source: paper PMC9681820, “A PDE10A inhibitor CPL500036 is a novel agent modulating striatal function devoid of most neuroleptic side-effects” (Frontiers in Pharmacology, 2022)
